Experimental data published in article PMC5412012, “HS1BP3 negatively regulates autophagy by modulation of phosphatidic acid levels” (Nature Communications, 2016).

Key:
[1] = biological target: T1, HS1BP3-PX (PX domain, GST-tagged) (Homo sapiens, UniProt Q53T59); test: liposome floatation (Nycodenz), Coomassie gel; format: binding; details: 5 uM GST-tagged protein, 2 mM total lipid, 20 mM Hepes pH 7.4, 150 mM NaCl, 1 mM MgCl2, 25 °C; PA in liposomes
T1 construct: N-terminal PX domain only, lacks C-terminal part; by primers starts at Met1 (MQSPAVL) and ends ...EFLGTRS; GST- or MBP-tagged, expressed in Escherichia coli
T1 sequence (Q53T59 1-139): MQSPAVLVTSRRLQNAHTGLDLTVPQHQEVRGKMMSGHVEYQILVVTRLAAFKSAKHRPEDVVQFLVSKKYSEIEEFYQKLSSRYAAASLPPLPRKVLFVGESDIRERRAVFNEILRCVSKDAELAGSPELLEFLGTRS

[2] = biological target: T2, HS1BP3 (full length, GST-tagged) (Homo sapiens, UniProt Q53T59); test: liposome floatation (Nycodenz), Coomassie gel; format: binding; details: 5 uM GST-tagged protein, 2 mM total lipid, 20 mM Hepes pH 7.4, 150 mM NaCl, 1 mM MgCl2, 25 °C; PA in liposomes
T2 construct: full length, N-terminal PX domain plus unstructured C terminus; GST-tagged (floatation) or MBP-tagged (lipid strips), expressed in Escherichia coli
T2 sequence (Q53T59 1-392): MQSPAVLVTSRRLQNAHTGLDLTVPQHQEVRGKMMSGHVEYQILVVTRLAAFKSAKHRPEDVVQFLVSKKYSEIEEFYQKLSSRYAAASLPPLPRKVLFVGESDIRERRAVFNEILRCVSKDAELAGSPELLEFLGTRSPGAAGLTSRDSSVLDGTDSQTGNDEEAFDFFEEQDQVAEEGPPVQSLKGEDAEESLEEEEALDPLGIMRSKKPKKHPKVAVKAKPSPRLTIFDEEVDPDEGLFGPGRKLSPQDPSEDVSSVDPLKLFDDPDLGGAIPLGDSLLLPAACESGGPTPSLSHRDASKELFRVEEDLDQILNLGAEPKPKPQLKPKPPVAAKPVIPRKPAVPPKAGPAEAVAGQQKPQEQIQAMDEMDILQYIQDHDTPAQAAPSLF

Compound: CCCCCCCC/C=C\CCCCCCCC(=O)OC[C@H](COP(=O)(O)O)OC(=O)CCCCCCC/C=C\CCCCCCCC [dioleyoyl-phosphatidic acid]
- liposome floatation (Nycodenz), Coomassie gel [1]: binding of both HS1BP3 and the PX domain to PA increase with increasing concentrations
- liposome floatation (Nycodenz), Coomassie gel [2]: binding of both HS1BP3 and the PX domain to PA increase with increasing concentrations
